The text below walks through data of patent US11814367B2, “Inhibitors of glycogen synthase 1 (GYS1) and methods of use thereof” (Maze Therapeutics, Inc., priority 2021, dated 2023).

Some results are limits rather than exact numbers.

Test [1] addresses hGYS2 enzyme (recombinant hGYS2/GN1 protein) (Homo sapiens (Human), UniProt P54840). The test can be described thus: GYS2 coupled enzyme assay (PK/LDH). Type of test: biochemical. As to conditions: geometric mean of at least 2 assay runs on separate days, read-out: Avg_IC50. The source says:
The GYS2 coupled enzyme assay is a kinetic biochemical assay that indirectly quantifies the rate of glycogen synthesis by coupling the conversion of GYS2 substrate UDP-glucose into UDP with downstream enzymatic reactions. UDP is released from UDP-glucose as glucose monomers are linked into the growing glycogen strand by GYS2. The coupled assay then proceeds with pyruvate kinase utilizing UDP and phospho(enol)pyruvate (PEP) to form pyruvate. Lactate dehydrogenase then converts pyruvate and NADH into lactate and NAD+. Oxidation of NADH to NAD+ can be measured continuously with a plate reader by quantifying the decrease in NADH absorbance at 340 nm over time.
Compounds that inhibit the hGYS2 enzyme and, subsequently, the downstream conversion of NADH to NAD+, were tested using assay ready plates (black, clear bottom 384 well plates) in a final DMSO reaction volume of 2.5% DMSO. The Assay Buffer contained 50 mM Tris pH 7.5, 2 mM MgCl2, and 100 mM KCl. Fresh stocks of BSA at a final concentration of 0.02% and TCEP 1 mM were added before splitting buffer into hGYS2 buffer and substrate buffer. To the hGYS2 buffer, rabbit liver glycogen was added at a final concentration of 0.2% glycogen. Glucose-6-Phosphate was added at 2 mM, recombinant hGYS2/GN1 protein was added at 200 nM to the substrate buffer, phosphoenolpyruvate (PEP) was added at 2 mM, UDP-Glucose was added at 2 mM, NADH was added at 0.6 mM, and Pyruvate Kinase/Lactate Dehydrogenase was added at 20 units/mL. The reaction was initiated by mixing hGYS2 buffer and substrate buffer at a 1:1 ratio. Both buffers were plated using a liquid dispensing device with hGYS2 buffer plated first followed by the substrate buffer. Plates were spun briefly to eliminate air bubbles and are immediately read in continuous mode at an absorbance of 340 nm, for 10 time points in one-minute increments, for a total of 10 minutes. The slope from these 10 time points was normalized to the positive and negative control wells. The duplicate % inhibition values are then averaged and fit to a Hill equation for dose response according to the Levenberg-Marquardt algorithm with the Hill equation maximum set to 100 and the minimum set to 0.
The results are shown in Table 4 below, which reports the IC50 of each compound. Unless otherwise specified, IC50 values are reported as the geometric mean of at least 2 assay runs on separate days. As shown in the table below, the compounds of the present invention are not potent inhibitors of human GYS2. Unless otherwise specified, IC50 values are reported as the geometric mean of at least two assay runs on separate days. Each run represents the average of a technical replicate, where each compound was assayed twice in the same plate. A superscript “#” symbol in Table 4 indicates results from a single assay run.

The target in test [2] is hGYS1 enzyme (recombinant hGYS1/GN1 protein) (Homo sapiens (Human), UniProt P13807). The test can be described thus: GYS1 coupled enzyme assay (PK/LDH). The format is biochemical. As to conditions: hGYS1/GN1 50 nM, UDP-Glucose 0.8 mM, G6P 1 mM; geometric mean of at least 2 runs.
hGYS1 enzyme (recombinant hGYS1/GN1 protein), sequence (P13807 whole entry): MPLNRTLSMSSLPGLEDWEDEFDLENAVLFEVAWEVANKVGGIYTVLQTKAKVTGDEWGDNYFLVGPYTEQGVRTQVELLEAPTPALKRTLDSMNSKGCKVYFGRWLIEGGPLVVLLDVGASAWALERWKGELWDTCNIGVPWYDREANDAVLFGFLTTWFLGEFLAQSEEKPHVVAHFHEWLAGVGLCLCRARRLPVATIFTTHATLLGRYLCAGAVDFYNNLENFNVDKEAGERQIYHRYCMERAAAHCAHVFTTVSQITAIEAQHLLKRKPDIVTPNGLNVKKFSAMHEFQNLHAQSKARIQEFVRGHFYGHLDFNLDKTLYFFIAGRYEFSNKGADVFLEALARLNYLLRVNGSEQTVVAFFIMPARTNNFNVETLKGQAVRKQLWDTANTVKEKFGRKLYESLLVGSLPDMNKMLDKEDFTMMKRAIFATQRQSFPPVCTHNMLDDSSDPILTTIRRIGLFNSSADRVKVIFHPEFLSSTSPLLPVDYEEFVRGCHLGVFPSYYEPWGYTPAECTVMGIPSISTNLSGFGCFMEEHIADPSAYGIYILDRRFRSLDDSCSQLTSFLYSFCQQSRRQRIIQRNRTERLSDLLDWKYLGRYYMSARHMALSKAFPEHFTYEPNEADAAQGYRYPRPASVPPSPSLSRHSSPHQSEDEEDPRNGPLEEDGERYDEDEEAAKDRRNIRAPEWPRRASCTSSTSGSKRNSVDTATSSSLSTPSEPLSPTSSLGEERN
hGYS1 enzyme (recombinant hGYS1/GN1 protein), sequence (P46976 whole entry partner): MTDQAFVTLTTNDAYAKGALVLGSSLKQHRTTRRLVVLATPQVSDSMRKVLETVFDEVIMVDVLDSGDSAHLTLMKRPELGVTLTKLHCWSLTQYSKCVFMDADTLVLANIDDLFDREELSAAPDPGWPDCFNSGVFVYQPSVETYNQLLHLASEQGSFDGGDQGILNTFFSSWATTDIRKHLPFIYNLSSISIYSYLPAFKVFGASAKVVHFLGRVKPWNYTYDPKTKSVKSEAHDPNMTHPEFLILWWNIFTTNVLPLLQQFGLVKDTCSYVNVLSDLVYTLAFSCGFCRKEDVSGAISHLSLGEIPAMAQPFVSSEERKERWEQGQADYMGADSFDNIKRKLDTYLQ

hGYS2 enzyme (recombinant hGYS2/GN1 protein), sequence (P54840 whole entry): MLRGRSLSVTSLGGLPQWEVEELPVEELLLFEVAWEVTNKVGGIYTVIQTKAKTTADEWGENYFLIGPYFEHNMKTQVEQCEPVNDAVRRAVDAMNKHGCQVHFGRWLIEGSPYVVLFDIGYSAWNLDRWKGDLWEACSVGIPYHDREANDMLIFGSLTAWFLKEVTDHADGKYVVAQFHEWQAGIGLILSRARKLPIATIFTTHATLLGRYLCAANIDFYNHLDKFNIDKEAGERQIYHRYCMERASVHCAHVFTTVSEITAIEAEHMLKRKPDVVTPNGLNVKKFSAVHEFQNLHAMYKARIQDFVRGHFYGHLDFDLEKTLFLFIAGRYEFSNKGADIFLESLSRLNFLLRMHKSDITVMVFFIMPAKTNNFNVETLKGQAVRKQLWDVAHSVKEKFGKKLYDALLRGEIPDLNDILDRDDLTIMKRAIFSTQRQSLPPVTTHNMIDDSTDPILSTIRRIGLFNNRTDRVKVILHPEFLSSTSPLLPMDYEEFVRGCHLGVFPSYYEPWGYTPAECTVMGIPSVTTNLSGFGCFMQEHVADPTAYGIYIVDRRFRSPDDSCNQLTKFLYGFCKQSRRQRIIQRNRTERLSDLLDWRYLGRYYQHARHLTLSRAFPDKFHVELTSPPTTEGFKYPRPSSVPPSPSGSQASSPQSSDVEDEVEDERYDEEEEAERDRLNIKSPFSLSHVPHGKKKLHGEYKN
hGYS2 enzyme (recombinant hGYS2/GN1 protein), sequence (P46976 whole entry partner): as the sequence (P46976 whole entry partner) above

Turning to `CC(C)c1ccc([C@@H](NC(=O)[C@@H]2C[C@@H](F)CN2C(=O)Cc2cncnc2)c2ccccc2)cc1` [Compound 27, (2S,4R)-4-fluoro-N-[(S)-phenyl[4-(propan-2-yl)phenyl]methyl]-1-[2-(pyrimidin-5-yl)acetyl]pyrrolidine-2-carboxamide], the IC50 in test [1] is over 100000 nM; in test [2] it was 23 nM.

With `Cc1nc(CC(=O)N2C[C@H](F)C[C@H]2C(=O)N[C@@H](c2ccccc2)c2ccc(C(C)C)cc2)no1` [Compound 29, (2S,4R)-4-fluoro-1-[2-(5-methyl-1,2,4-oxadiazol-3-yl)acetyl]-N-[(S)-phenyl[4-(propan-2-yl)phenyl]methyl]pyrrolidine-2-carboxamide], the IC50 in test [1] is over 100000 nM; in test [2], 70 nM.

As to `Cc1noc(CC(=O)N2C[C@H](F)C[C@H]2C(=O)N[C@@H](c2ccccc2)c2ccc(C(C)C)cc2)n1` [Compound 31, (2S,4R)-4-fluoro-1-[2-(3-methyl-1,2,4-oxadiazol-5-yl)acetyl]-N-[(S)-phenyl[4-(propan-2-yl)phenyl]methyl]pyrrolidine-2-carboxamide], the IC50 in test [1] is over 100000 nM; in test [2], 48 nM.

With `CC(C)c1ccc([C@@H](NC(=O)[C@@H]2C[C@@H](F)CN2C(=O)Cn2ccncc2=O)c2ccccc2)cc1` [Compound 32, (2S,4R)-4-fluoro-1-[2-(2-oxo-1,2-dihydropyrazin-1-yl)acetyl]-N-[(S)-phenyl[4-(propan-2-yl)phenyl]methyl]pyrrolidine-2-carboxamide], the IC50 in test [1] is over 100000 nM; in test [2], 23 nM.

On to `CC(C)c1ccc([C@@H](NC(=O)[C@@H]2C[C@@H](F)CN2C(=O)C(C)n2ccnn2)c2ccccc2)cc1` (stereo partly drawn) [Compound 33, (2S,4R)-4-fluoro-N-[(S)-phenyl[4-(propan-2-yl)phenyl]methyl]-1-[2-(1H-1,2,3-triazol-1-yl)propanoyl]pyrrolidine-2-carboxamide], for which the IC50 in test [1] is over 100000 nM; in test [2] it was 106 nM.

Take `CC(C)c1ccc([C@@H](NC(=O)[C@@H]2C[C@@H](F)CN2C(=O)C(C)n2cncn2)c2ccccc2)cc1` (stereo partly drawn) [Compound 34, (2S,4R)-4-fluoro-N-[(S)-phenyl[4-(propan-2-yl)phenyl]methyl]-1-[2-(1H-1,2,4-triazol-1-yl)propanoyl]pyrrolidine-2-carboxamide]: the IC50 in test [1] was over 100000 nM; in test [2] it was 75 nM.

As for `CC(C)c1ccc([C@@H](NC(=O)[C@@H]2C[C@@H](F)CN2C(=O)CCn2cncn2)c2ccccc2)cc1` [Compound 35, (2S,4R)-4-fluoro-N-[(S)-phenyl[4-(propan-2-yl)phenyl]methyl]-1-[3-(1H-1,2,4-triazol-1-yl)propanoyl]pyrrolidine-2-carboxamide], the IC50 is over 100000 nM in test [1] and 185 nM in test [2].

`CC(C)c1ccc([C@@H](NC(=O)[C@@H]2C[C@@H](F)CN2C(=O)Cc2ccc(F)cn2)c2ccccc2)cc1` [Compound 36, (2S,4R)-4-fluoro-1-[2-(5-fluoropyridin-2-yl)acetyl]-N-[(S)-phenyl[4-(propan-2-yl)phenyl]methyl]pyrrolidine-2-carboxamide]: the results for the IC50 in test [1] and in test [2] were over 100000 nM and 73 nM, respectively.

On to `CC(C)c1ccc([C@@H](NC(=O)[C@@H]2C[C@@H](F)CN2C(=O)Cc2ccccn2)c2ccccc2)cc1` [Compound 37, (2S,4R)-4-fluoro-N-[(S)-phenyl[4-(propan-2-yl)phenyl]methyl]-1-[2-(pyridin-2-yl)acetyl]pyrrolidine-2-carboxamide], for which the values for the IC50 in test [1] and in test [2] were over 100000 nM and 45 nM, respectively.

In the case of `CC(C)c1ccc([C@@H](NC(=O)[C@@H]2C[C@@H](F)CN2C(=O)Cc2cccnc2)c2ccccc2)cc1` [Compound 38, (2S,4R)-4-fluoro-N-[(S)-phenyl[4-(propan-2-yl)phenyl]methyl]-1-[2-(pyridin-3-yl)acetyl]pyrrolidine-2-carboxamide], the figures for the IC50 in test [1] and in test [2] were over 100000 nM and 51 nM, respectively.

Take `Cc1cc(CC(=O)N2C[C@H](F)C[C@H]2C(=O)N[C@@H](c2ccccc2)c2ccc(C(C)C)cc2)on1` [Compound 40, (2S,4R)-4-fluoro-1-[2-(3-methyl-1,2-oxazol-5-yl)acetyl]-N-[(S)-phenyl[4-(propan-2-yl)phenyl]methyl]pyrrolidine-2-carboxamide]: the IC50 in test [1] is over 100000 nM; in test [2], 26 nM.

For `Cc1ncc(CC(=O)N2C[C@H](F)C[C@H]2C(=O)N[C@@H](c2ccccc2)c2ccc(C(C)C)cc2)s1` [Compound 41, (2S,4R)-4-fluoro-1-[2-(2-methyl-1,3-thiazol-5-yl)acetyl]-N-[(S)-phenyl[4-(propan-2-yl)phenyl]methyl]pyrrolidine-2-carboxamide], the figures for the IC50 in test [1] and in test [2] were over 100000 nM and 31 nM, respectively.

Take `CC(C)c1ccc([C@@H](NC(=O)[C@@H]2C[C@@H](F)CN2C(=O)C(C)n2ccnc2)c2ccccc2)cc1` (stereo partly drawn) [Compound 44, (2S,4R)-4-fluoro-1-[2-(1H-imidazol-1-yl)propanoyl]-N-[(S)-phenyl[4-(propan-2-yl)phenyl]methyl]pyrrolidine-2-carboxamide]: the figures for the IC50 in test [1] and in test [2] were over 100000 nM and 106 nM, respectively.

For `CC(C)c1ccc([C@@H](NC(=O)[C@@H]2C[C@@H](F)CN2C(=O)CCc2cn[nH]c2)c2ccccc2)cc1` [Compound 46, (2S,4R)-4-fluoro-N-[(S)-phenyl[4-(propan-2-yl)phenyl]methyl]-1-[3-(1H-pyrazol-4-yl)propanoyl]pyrrolidine-2-carboxamide], the IC50 in test [1] is over 100000 nM; in test [2], 136 nM.

Take `CC(C)c1ccc([C@@H](NC(=O)[C@@H]2C[C@@H](F)CN2C(=O)COc2cccnc2)c2ccccc2)cc1` [Compound 48, (2S,4R)-4-fluoro-N-[(S)-phenyl[4-(propan-2-yl)phenyl]methyl]-1-[2-(pyridin-3-yloxy)acetyl]pyrrolidine-2-carboxamide]: the IC50 in test [1] is over 100000 nM; in test [2], 44 nM.

On to `CC(C)c1ccc([C@@H](NC(=O)[C@@H]2C[C@@H](F)CN2C(=O)Cc2cnn(C)c2)c2ccccc2)cc1` [Compound 50, (2S,4R)-4-fluoro-1-[2-(1-methyl-1H-pyrazol-4-yl)acetyl]-N-[(S)-phenyl[4-(propan-2-yl)phenyl]methyl]pyrrolidine-2-carboxamide], for which the IC50 is over 100000 nM in test [1] and 17 nM in test [2].

On to `CC(C)c1ccc([C@@H](NC(=O)[C@@H]2C[C@@H](F)CN2C(=O)Cn2ccccc2=O)c2ccccc2)cc1` [Compound 51, (2S,4R)-4-fluoro-1-[2-(2-oxo-1,2-dihydropyridin-1-yl)acetyl]-N-[(S)-phenyl[4-(propan-2-yl)phenyl]methyl]pyrrolidine-2-carboxamide], for which the IC50 is over 100000 nM in test [1] and 19 nM in test [2].

Regarding `Cc1nc(CC(=O)N2C[C@H](F)C[C@H]2C(=O)N[C@@H](c2ccccc2)c2ccc(C(C)C)cc2)cs1` [Compound 52, (2S,4R)-4-fluoro-1-[2-(2-methyl-1,3-thiazol-4-yl)acetyl]-N-[(S)-phenyl[4-(propan-2-yl)phenyl]methyl]pyrrolidine-2-carboxamide], the values for the IC50 in test [1] and in test [2] were over 100000 nM and 37 nM, respectively.

`Cc1ccn(CC(=O)N2C[C@H](F)C[C@H]2C(=O)N[C@@H](c2ccccc2)c2ccc(C(C)C)cc2)n1` [Compound 55, (2S,4R)-4-fluoro-1-[2-(3-methyl-1H-pyrazol-1-yl)acetyl]-N-[(S)-phenyl[4-(propan-2-yl)phenyl]methyl]pyrrolidine-2-carboxamide]: the IC50 was over 100000 nM in test [1] and 43 nM in test [2].

As for `Cc1cnn(CC(=O)N2C[C@H](F)C[C@H]2C(=O)N[C@@H](c2ccccc2)c2ccc(C(C)C)cc2)c1` [Compound 56, (2S,4R)-4-fluoro-1-[2-(4-methyl-1H-pyrazol-1-yl)acetyl]-N-[(S)-phenyl[4-(propan-2-yl)phenyl]methyl]pyrrolidine-2-carboxamide], the IC50 was over 100000 nM in test [1] and 41 nM in test [2].

As for `CC(C)c1ccc([C@@H](NC(=O)[C@@H]2C[C@@H](F)CN2C(=O)[C@@H]2CCC(=O)N2C)c2ccccc2)cc1` [Compound 57, (2S,4R)-4-fluoro-1-[(2S)-1-methyl-5-oxopyrrolidine-2-carbonyl]-N-[(S)-phenyl[4-(propan-2-yl)phenyl]methyl]pyrrolidine-2-carboxamide], the IC50 was over 100000 nM in test [1] and 231 nM in test [2].
